US8486979B2, “1,2,4 oxadiazole compounds and methods of use thereof” (AbbVie Inc., priority 2006, dated 2013)
One block for each compound: values may come before it.

Columns and labels:
[1] = biological target: T1, human α3β4 nicotinic acetylcholine receptor (Homo sapiens, UniProt P30926+P32297); assay: Calcium flux (FLIPR) assay, HEK-293 cells expressing human α3β4 nAChR; format: cell-based; conditions: for calcium response of partial agonist co-applied with PAM: co-applied with PAM Compound 1, α3β4 nAChRs
T1 construct: expressed in transfected cells
T1 sequence (P32297 32-505): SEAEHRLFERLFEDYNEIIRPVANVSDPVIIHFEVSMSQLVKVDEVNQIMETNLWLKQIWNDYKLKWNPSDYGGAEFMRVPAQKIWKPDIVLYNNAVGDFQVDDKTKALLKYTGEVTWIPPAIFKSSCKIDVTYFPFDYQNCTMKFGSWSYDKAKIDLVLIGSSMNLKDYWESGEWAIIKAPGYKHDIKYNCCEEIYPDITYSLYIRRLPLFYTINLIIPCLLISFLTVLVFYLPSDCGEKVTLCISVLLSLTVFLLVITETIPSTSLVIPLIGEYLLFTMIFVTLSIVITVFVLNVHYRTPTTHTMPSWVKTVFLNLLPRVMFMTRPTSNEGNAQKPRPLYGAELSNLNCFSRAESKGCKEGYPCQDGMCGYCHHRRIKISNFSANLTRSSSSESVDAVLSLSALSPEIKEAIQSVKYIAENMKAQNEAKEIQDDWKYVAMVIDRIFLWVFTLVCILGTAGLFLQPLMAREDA
T1 sequence (P30926 22-498): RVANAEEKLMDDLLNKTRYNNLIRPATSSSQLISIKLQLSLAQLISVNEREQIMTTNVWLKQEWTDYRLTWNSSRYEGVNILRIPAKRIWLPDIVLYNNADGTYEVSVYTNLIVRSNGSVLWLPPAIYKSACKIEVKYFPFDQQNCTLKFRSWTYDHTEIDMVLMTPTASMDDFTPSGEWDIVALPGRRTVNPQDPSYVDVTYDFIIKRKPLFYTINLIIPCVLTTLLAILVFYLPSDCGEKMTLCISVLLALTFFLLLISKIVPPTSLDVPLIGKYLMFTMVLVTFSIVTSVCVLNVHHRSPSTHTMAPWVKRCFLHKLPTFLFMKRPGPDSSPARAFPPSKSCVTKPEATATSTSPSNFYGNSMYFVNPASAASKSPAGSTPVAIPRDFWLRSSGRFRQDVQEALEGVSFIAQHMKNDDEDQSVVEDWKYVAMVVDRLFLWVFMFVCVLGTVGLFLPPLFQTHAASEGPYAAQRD
Protocol: Experimental Procedure: Human embryonic kidney (HEK) 293 cells stably expressing human α4β2 or α3β4 combinations are grown to confluency in 162 cm^2 tissue culture flasks in DMEM media supplemented with 10% FBS and 25 μg/ml zeocin and 200 μg/ml hygromycin B. IMR-32 neuroblastoma cells (ATCC) are grown to confluency in 162 cm^2 tissue culture flasks in minimum essential media supplemented with 10% FBS and 1 mM sodium pyruvate, 1% non-essential amino acids and 1% antibiotic-antimycotic. The cells are then dissociated using cell dissociation buffer and 100-150 μl per well of 3.5×10^5 cells/ml cell suspension (˜50,000-100,000 cells/well) was plated into 96-well black plates (poly-D-lysine precoated) with clear bottom and maintained for 24-48 hours in a tissue culture incubator at 37° C. under an atmosphere of 5% CO2: 95% air. Other clonal cell lines or primary cell cultures that express endogenous α4* nicotinic receptors may also be used in this assay. Calcium flux was measured using calcium-3 assay kit (Molecular Devices, Sunnyvale, Calif.) or fluo-4 (Invitrogen). […] The cells were loaded with 100 μl of the dye per well and incubated at room temperature for up to one hour for HEK 293 clonal stable cell lines or 30 minutes-45 minutes at 37° C. for IMR-32 cells Fluorescence measurements were read simultaneously from all the wells by a Fluorometic Imaging Plate Reader (FLIPR) at an excitation wavelength of 480 nm and an emission wavelength of 520 nm. Baseline fluorescence was measured for the first 6 seconds at which 3× concentrations of modulator/test compounds were added to the cell plate at 50 μl and incubated for five minutes. The fluorescence intensity was captured every second for the first 1 minute followed by every 5 seconds for an additional 4 minutes. This procedure was followed by 50 μl of 4× concentration of agonist and readings were taken for a period of 3-5 minutes as described above. […] The concentration dependence of changes fluorescence responses was fitted by nonlinear regression analysis (GraphPad Prism, San Diego, Calif.) to obtain EC50 values. […]

[2] = biological target: T2, human α4β2 nicotinic acetylcholine receptor (Homo sapiens, UniProt P17787+P43681); assay: Calcium flux (FLIPR) assay, HEK-293 cells expressing human α4β2 nAChR; format: cell-based; conditions: for calcium response of partial agonist alone: without PAM; for calcium response of partial agonist co-applied with PAM: co-applied with PAM Compound 1, α4β2 nAChRs
T2 construct: expressed in transfected cells
T2 sequence (P43681 29-627 limits assumed): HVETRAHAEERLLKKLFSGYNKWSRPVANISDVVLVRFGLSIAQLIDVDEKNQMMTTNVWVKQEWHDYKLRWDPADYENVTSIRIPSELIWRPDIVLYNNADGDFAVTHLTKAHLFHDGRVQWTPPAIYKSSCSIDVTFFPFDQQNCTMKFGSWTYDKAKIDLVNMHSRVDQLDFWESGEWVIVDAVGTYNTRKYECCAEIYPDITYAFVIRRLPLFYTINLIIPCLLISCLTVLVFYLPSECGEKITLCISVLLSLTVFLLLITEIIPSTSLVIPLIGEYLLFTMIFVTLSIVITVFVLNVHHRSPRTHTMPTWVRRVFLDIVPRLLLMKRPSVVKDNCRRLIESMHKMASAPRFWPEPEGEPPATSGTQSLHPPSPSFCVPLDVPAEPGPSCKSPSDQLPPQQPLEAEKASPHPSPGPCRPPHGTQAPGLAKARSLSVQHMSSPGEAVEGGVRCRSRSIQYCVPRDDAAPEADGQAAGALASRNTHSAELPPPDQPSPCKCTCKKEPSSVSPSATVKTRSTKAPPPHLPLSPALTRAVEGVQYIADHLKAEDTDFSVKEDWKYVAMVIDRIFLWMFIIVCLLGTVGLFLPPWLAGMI
T2 sequence (P17787 26-502): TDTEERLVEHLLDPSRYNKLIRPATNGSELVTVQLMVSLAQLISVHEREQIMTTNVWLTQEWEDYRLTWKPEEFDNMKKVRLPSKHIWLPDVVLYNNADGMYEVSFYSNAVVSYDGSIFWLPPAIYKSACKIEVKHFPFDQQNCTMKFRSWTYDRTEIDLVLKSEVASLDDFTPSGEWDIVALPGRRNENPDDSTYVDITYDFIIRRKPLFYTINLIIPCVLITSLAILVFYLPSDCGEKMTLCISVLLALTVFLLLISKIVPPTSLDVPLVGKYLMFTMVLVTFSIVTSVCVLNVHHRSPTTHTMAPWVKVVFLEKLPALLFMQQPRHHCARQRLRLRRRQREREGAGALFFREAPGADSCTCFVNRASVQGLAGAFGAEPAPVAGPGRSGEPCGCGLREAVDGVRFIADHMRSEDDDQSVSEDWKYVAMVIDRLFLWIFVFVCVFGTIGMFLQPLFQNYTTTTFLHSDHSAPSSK
Protocol: Experimental Procedure: Human embryonic kidney (HEK) 293 cells stably expressing human α4β2 or α3β4 combinations are grown to confluency in 162 cm^2 tissue culture flasks in DMEM media supplemented with 10% FBS and 25 μg/ml zeocin and 200 μg/ml hygromycin B. IMR-32 neuroblastoma cells (ATCC) are grown to confluency in 162 cm^2 tissue culture flasks in minimum essential media supplemented with 10% FBS and 1 mM sodium pyruvate, 1% non-essential amino acids and 1% antibiotic-antimycotic. The cells are then dissociated using cell dissociation buffer and 100-150 μl per well of 3.5×10^5 cells/ml cell suspension (˜50,000-100,000 cells/well) was plated into 96-well black plates (poly-D-lysine precoated) with clear bottom and maintained for 24-48 hours in a tissue culture incubator at 37° C. under an atmosphere of 5% CO2: 95% air. Other clonal cell lines or primary cell cultures that express endogenous α4* nicotinic receptors may also be used in this assay. Calcium flux was measured using calcium-3 assay kit (Molecular Devices, Sunnyvale, Calif.) or fluo-4 (Invitrogen). A stock solution of the dye was prepared by dissolving each vial supplied by the vendor in Hank's balanced salt solution buffer (HBSS) or 150 mM NMDG, 20 mM CaCl2 containing 10 mM HEPES, The stock solution was diluted 1:20 using the same buffer before use. The growth media was removed from the cells. The cells were loaded with 100 μl of the dye per well and incubated at room temperature for up to one hour for HEK 293 clonal stable cell lines or 30 minutes-45 minutes at 37° C. for IMR-32 cells Fluorescence measurements were read simultaneously from all the wells by a Fluorometic Imaging Plate Reader (FLIPR) at an excitation wavelength of 480 nm and an emission wavelength of 520 nm. Baseline fluorescence was measured for the first 6 seconds at which 3× concentrations of modulator/test compounds were added to the cell plate at 50 μl and incubated for five minutes. The fluorescence intensity was captured every second for the first 1 minute followed by every 5 seconds for an additional 4 minutes. This procedure was followed by 50 μl of 4× concentration of agonist and readings were taken for a period of 3-5 minutes as described above. Data was normalized to maximal responses and plotted as a function of concentration. The concentration dependence of changes fluorescence responses was fitted by nonlinear regression analysis (GraphPad Prism, San Diego, Calif.) to obtain EC50 values.
The positive allosteric modulator effects on α4β2 nAChRs exemplified by 3-(3-pyridin-3-yl-1,2,4-oxadiazol-5-yl)benzonitrile (Compound 1) and 3,5-di(pyridin-3-yl)-1,2,4-oxadiazole (Compound 2) can be identified by measuring their potentiating effect to fluorescence changes in intracellular calcium using a fluorimetric plate reader. The potentiating effect of an α4β2 modulator on α4β2 receptor can also be illustrated by concentration responses to α4β2 agonists, for example 5-[(2R)-azetidin-2-ylmethoxy]-2-chloropyridine (Compound A) and (3R)-1-pyridin-3-ylpyrrolidin-3-amine (Compound B), in presence of a fixed concentration of PAM. […] In addition to compound A and B, other known nicotinic agonists can be left-shifted in presence of α4β2 PAM such as […]. […] This could lead to preferential effects of the agonist at the desired subtype, viz., α4β2, without effects at other nicotinic receptor subtypes and thus enhancing in vivo selectivity of the agonist.
The activity (allosteric effects—potentiation of fluorescence responses) ranges are defined as follows; “a” denotes as activity range from 200-400%, “b” denotes an activity range from 150-200%, “c” denotes an activity range from 120-150% and “d” denotes an activity range 90-120%. […]

[3] = test system: nerve injury induced mechanical allodynia; assay: Chung model of neuropathic pain (L5-L6 spinal nerve ligation, tactile allodynia, von Frey); format: in vivo; conditions: rat
Protocol: Animals: Male Sprague-Dawley rats (Charles River, Wilmington, Mass.) weighing 120-150 grams at time of surgery were utilized. These animals were group housed in AAALAC approved facilities at Abbott Laboratories in a temperature-regulated environment with lights on between 0700 and 2000 hours. Food and water was available ad libitum except during testing. All animal handling and experimental protocols were approved by an institutional animal care and use committee (IACUC). All experiments were performed during the light cycle.
Chemicals: 5-[(2R)-Azetidin-2-ylmethoxy]-2-chloropyridine (Compound A, 1-100 nmol/kg) and 3-(3-pyridin-3-yl)-1,2,4-oxadiazol-5-yl)benzonitrile (α4β2 PAM Compound 1, 1-35 μmol/kg, i.p.) was used. Compound A and D was prepared in saline and injected in solution in a volume of 2 ml/kg body weight 30 minutes before behavioral evaluation. Compound 1,3-(3-(pyridin-3-yl)-1,2,4-oxadiazol-5-yl)benzonitrile, was prepared in 30% hydroxybetacyclodextrin and injected in solution in a volume of 4 ml/kg body weight immediately before Compound A. For studies with Compound D, the doses tested ranged from 0.3-30 μmol/kg i.p.
Experimental Procedure: To produce neuropathic pain, tight ligation of the L5-L6 spinal nerves was performed. As previously described in detail by Kim and Chung (Kim S H and Chung J M (1992), Pain 50: 355), following sterilization procedures, a 1.5 cm incision was made dorsal to the lumbosacral plexus. The paraspinal muscles (left side) were separated from the spinous processes, the L5 and L6 spinal nerves isolated, and tightly ligated with 3-0 silk thread. Following hemostasis, the wound was sutured and coated with antibiotic ointment. The rats were allowed to recover and then placed in a cage with soft bedding for 7-14 days before behavioral testing for mechanical allodynia.
Tactile allodynia was measured using calibrated (force; g) von Frey filaments (Stoelting, Wood Dale, Ill.). Briefly, rats were placed into individual plexiglass containers and allowed to acclimate for 15-20 minutes before testing. Withdrawal threshold was determined by increasing and decreasing stimulus intensity and estimated using a Dixon non-parametric test (Chaplan et al., 1994; Chaplan S R, Bach F W, Pogrel J W, Chung J M and Yaksh T L (1994) J Neurosci Methods 53:55-63). Only rats with threshold scores ≦4.5 g were considered allodynic and utilized in further testing. A percent of maximal possible effect (% M.P.E.) of the tested compounds was calculated according to the formula: ([post-drug threshold]−[baseline threshold])/([maximum threshold]−[baseline threshold])×100%, where maximum threshold was equal to 15 g.
Statistical analysis: Analysis of the in vivo data was carried out using analysis of variance. Where appropriate, Bonferroni's Multiple Comparison Test was used for post-hoc analysis. The level of significance was set at p less than 0.05. Data are presented as mean ±S.E.M.

emesis = assay: Emesis in ferrets; format: in vivo; conditions: ferret
Protocol: Fasted male ferrets (Marshall BioResources, North Rose, N.Y.) weighing between 1.0 and 1.7 kg are used to determine the emetic effects. α4β2 PAM (Compound 1) was administered first and thirty minutes later, Compound A was administered at various doses. […] The percentage of animals that experienced emesis at a given dose was recorded.

[4] = biological target: T3, α4β2 nAChR modulator site (Homo sapiens, UniProt P17787+P43681); assay: [3H]-POB binding, membrane enriched fractions from human cortex; conditions: saturation binding, human frontal cortex membranes, 4° C.
T3 construct: membrane enriched fractions from human cortex (ABS Inc., Wilmington, Del.); tissue ABS Inc., Wilmington, Del; host or cells: human cortex (frontal cortex) membrane enriched fractions
T3 sequence (P43681 29-627 limits assumed): as the sequence (P43681 29-627 limits assumed) above
T3 sequence (P17787 26-502): as the sequence (P17787 26-502) above
Protocol: [^3H]-POB ([^3H]-3-(5-(pyridin-3-yl)-1,2,4-oxadiazol-3-yl)benzonitrile) binding to a α4β2 nAChR modulator site was determined using membrane enriched fractions from human cortex (ABS Inc., Wilmington, Del.). Pellets were thawed at 4° C., washed and resuspended with a Polytron at a setting of 7 in 30 volumes of BSS-Tris buffer (120 mM NaCl, 5 mM KCl, 2 mM CaCl2, 2 mM MgCl2, and 50 mM Tris-Cl, pH 7.4, 4° C.). For saturation binding isotherms, eight concentrations of [^3H]-POB (10-250 nM) in quadruplicate and homogenate containing 100-200 μg of protein were incubated in a final volume of 500 μL for 75 minutes at 4° C. Non-specific binding was determined in the presence of 30 μM unlabeled 3-(5-(pyridin-3-yl)-1,2,4-oxadiazol-3-yl)benzonitrile. Under these conditions, saturable binding of [^3H]-POB binding was measured in membrane enriched fractions from human frontal cortex (FIG. 10). […]
For use in concentration-inhibition assays, seven log-dilution concentrations of test compounds containing 100-200 μg of protein, and 50 nM [^3H]-POB (16.4 Ci/mmol) were incubated in a final volume of 500 μL for 75 minutes at 4° C. in duplicate. Non-specific binding was determined in the presence of 30 μM 3-(5-(pyridin-3-yl)-1,2,4-oxadiazol-3-yl)benzonitrile. […] IC50 values were determined by nonlinear regression in Microsoft® Excel or Assay Explorer. […]

[5] = Compound 1 3.5 μmol/kg with various doses of Compound A

calcium response of partial agonist co-applied with PAM [1]: not at α3β4 nAChRs | calcium response of partial agonist alone [2]: does not evoke a calcium response | calcium response of partial agonist co-applied with PAM [2]: evoked robust responses
SMILES: Cc1ncccc1OC[C@@H]1CCCN1 [Compound C, 2-methyl-3-(2-(S)-pyrrolidinylmethoxy)pyridine, reference compound]

SMILES: c1ccc2ncc(N3C[C@@H]4CN[C@@H]4C3)cc2c1 [Compound D, (1S,5S)-3-(3,6-diaza-bicyclo[3.2.0]hept-3-yl)-quinoline]
efficacy in neuropathic pain, administered alone ([3]; alone): ineffective in reversing neuropathic pain | efficacy in neuropathic pain, co-dosed with α4β2 PAM ([3]; co-dosed with Compound 1): significant relief of neuropathic pain | calcium response of partial agonist co-applied with PAM [1]: not at α3β4 nAChRs | calcium response of partial agonist alone [2]: does not evoke a response | calcium response of partial agonist co-applied with PAM [2]: evoked robust responses

SMILES: N#Cc1cccc(-c2nc(-c3cccnc3)no2)c1 [Example 1, 3-(3-(pyridin-3-yl)-1,2,4-oxadiazol-5-yl)benzonitrile]
mechanical paw withdrawal threshold (PWT) ([3]; 10 mg/kg, i.p., alone): 3.3 ± 0.4 g | shift of neuropathic pain dose response curve of Compound A [3, 5]: left-shifting the dose response curve of Compound A | efficacy in neuropathic pain, administered alone ([3]; alone): ineffective | effect of PAM on concentration responses to the agonists ([1]; cells expressing α3β4, agonists Compound A and Compound B): unable to affect the concentration responses to the agonists | Activity (allosteric effects—potentiation of fluorescence responses) ([2]; α4β2 positive allosteric modulation, calcium fluorescence (FLIPR)): a (“a” denotes as activity range from 200-400%) | shift of emesis dose response curve of Compound A (emesis; [5]): does not shift the dose response curve of Compound A | emesis (emesis; alone): does not cause emesis

Bmax [4]: 2900±500 fmol/mg protein | Kd [4]: 60 ± 16 nM
SMILES: [3H]c1cncc(-c2nc(-c3cccc(C#N)c3)no2)c1 [Example 135, [^3H]-3-(5-(pyridin-3-yl)-1,2,4-oxadiazol-3-yl)benzonitrile]
